# Test results taken from US7268128B2, “1,3,5-trisubstituted-5-phenyl and 5-pyridyl pyrazolopyrimidinone derivatives having PDE7 inhibiting action” (Ausbio Pharma Co., Ltd., priority 2001, dated 2007).
# Molecular target: T1, PDE7 (type VII phosphodiesterase) (Homo sapiens, UniProt Q13946)
# T1 construct: endogenous in cells; host or cells: MOLT-4 (ATCC CRL-1582), soluble fraction, HiTrapQ anion-exchange fraction
# Assay: PDE7 inhibiting activity (3H-cAMP hydrolysis, active fraction from MOLT-4 cells)
# Format: biochemical
# Conditions: PDE7 fraction from MOLT-4 cells, 0.064 μM cAMP, 10 μM rolipram present, 2 hours at 25° C.; read-out: IC50 values for phosphodiesterase inhibiting activities (PDE7)
# Experimental: To evaluate the compounds of the present invention for the ability to suppress PDE7 (type VII phosphodiesterase), the method of Biochemical Pharmacol. 48(6), 1219-1223 (1994) was partially modified to perform the following assay:
# 1) PDE7 (type VII phosphodiesterase) active fraction was obtained. That is, human acute lymphoblastoid lymphoma T cell strain MOLT-4 (purchasable from ATCC under ATCC No. CRL-1582) was cultured in RPMI1640 medium containing 10% fetal bovine serum to obtain 5×10^8 MOLT4 cells. The cells were harvested by centrifugation, and suspended in 10 ml of buffer A (25 mM tris-HCl, 5 mM 2-mercaptoethanol, 2 mM benzamidine, 2 mM EDTA, 0.1 mM 4-(2-aminoethyl)benzenesulfonyl hydrochloride, pH 7=7.5). The cells were homogenized in a Polytoron homogenizer, and centrifuged (4° C., 25,000 G, 10 min). The supernatant was further ultracentrifuged (4° C., 100,000 G, 60 min), and the resulting supernatant was filtered through a 0.2 μm filter to obtain a soluble fraction.
# 2) HiTrapQ column (5 ml×2) equilibrated with buffer A was charged with the resulting soluble fraction. Phosphodiesterase was eluted using 300 ml of buffer A containing a linear gradient solution of 0 to 0.8M sodium chloride to collect sixty 5 ml fractions. Each fraction was tested for cAMP metabolizing phosphodiesterase activity.
# 3) The test compounds at desired concentrations were each reacted for 2 hours at 25° C. in a reactant mixture containing 20 mM tris-HCl (pH 7.5), 1 mM MgCl2, 100 μM EDTA, 330 μg/ml bovine serum albumin, 4 μg/ml 5′-nucleotidase, 0.1 μCi^3H-cAMP (0.064 μM cAMP), 10 μM rolipram, and the type VII phosphodiesterase stored solution. QAE-Sephadex suspended in 10 mM HEPES-Na (pH 7.0) was added to the reaction mixture, and the mixture was allowed to stand for 5 minutes. Then, the supernatant was recovered, and QAE-Sephadex was further added, followed by allowing the mixture to stand for 5 minutes. Then, the resulting supernatant was measure for radioactivity.
# 4) IC50, as the concentration of the test compound that inhibited 50% of the metabolic activity of PDE7, was calculated for each of the compounds.
# T1 sequence (Q13946 whole entry): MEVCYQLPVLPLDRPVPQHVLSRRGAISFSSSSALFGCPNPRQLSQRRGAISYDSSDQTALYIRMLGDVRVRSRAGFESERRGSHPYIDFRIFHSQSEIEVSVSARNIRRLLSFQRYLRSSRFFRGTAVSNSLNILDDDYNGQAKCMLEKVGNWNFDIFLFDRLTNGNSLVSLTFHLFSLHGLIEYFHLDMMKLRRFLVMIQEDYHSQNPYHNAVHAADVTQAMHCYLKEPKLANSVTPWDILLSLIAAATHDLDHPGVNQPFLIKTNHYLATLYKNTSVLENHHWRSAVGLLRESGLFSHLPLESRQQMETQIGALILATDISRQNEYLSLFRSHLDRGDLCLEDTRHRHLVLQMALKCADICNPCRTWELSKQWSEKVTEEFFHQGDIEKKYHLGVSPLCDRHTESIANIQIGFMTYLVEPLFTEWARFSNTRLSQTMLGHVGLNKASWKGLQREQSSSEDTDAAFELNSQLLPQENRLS
row,IC50,SMILES
1,≤ 1 µM,"COc1cc(NC(C)=O)ccc1-c1nc2c(c(C3CCCCC3)nn2C)c(=O)[nH]1 [Example 45, N-[4-(3-cyclohexyl-1-methyl-4-oxo-4,5-dihydro-1H-pyrazolo[3,4-d]pyrimidin-6-yl)-3-methoxyphenyl]acetamide]"
2,≤ 0.01 µM,"COCC(=O)Nc1ccc(-c2nc3c(c(C4CCCCC4)nn3C)c(=O)[nH]2)c(OC)c1 [Example 46, N-[4-(3-cyclohexyl-1-methyl-4-oxo-4,5-dihydro-1H-pyrazolo[3,4-d]pyrimidin-6-yl)-3-methoxyphenyl]-2-methoxyacetamide]"
3,≤ 0.01 µM,"CNc1ccc(-c2nc3c(c(C4CCCCC4)nn3C)c(=O)[nH]2)c(OC)c1 [Example 47, 3-Cyclohexyl-6-[2-methoxy-4-(methylamino)phenyl]-1-methyl-1,5-dihydro-4H-pyrazolo[3,4-d]pyrimidin-4-one]"
4,≤ 1 µM,"COc1cc(S(=O)(=O)N2CCN(C)CC2)ccc1-c1nc2c(c(C3CCCCC3)nn2C)c(=O)[nH]1 [Example 50, 3-Cyclohexyl-6-{2-methoxy-4-[(4-methyl-1-piperazinyl)sulfonyl]phenyl}-1-methyl-1,5-dihydro-4H-pyrazolo[3,4-d]pyrimidin-4-one monochloride]"
5,≤ 0.01 µM,"COc1cc(S(=O)(=O)N2CCOCC2)ccc1-c1nc2c(c(C3CCCCC3)nn2C)c(=O)[nH]1 [Example 51, 3-Cyclohexyl-6-[2-methoxy-4-(4-morpholinylsulfonyl)phenyl]-1-methyl-1,5-dihydro-4H-pyrazolo[3,4-d]pyrimidin-4-one]"
6,≤ 0.01 µM,"COc1cc(S(=O)(=O)N2CCC(O)CC2)ccc1-c1nc2c(c(C3CCCCC3)nn2C)c(=O)[nH]1 [Example 52, 3-Cyclohexyl-6-{4-[(4-hydroxy-1-piperidinyl)sulfonyl]-2-methoxyphenyl}-1-methyl-1,5-dihydro-4H-pyrazolo[3,4-d]pyrimidin-4-one]"
7,≤ 1 µM,"COc1cc(S(=O)(=O)N2CCC(C(=O)O)CC2)ccc1-c1nc2c(c(C3CCCCC3)nn2C)c(=O)[nH]1 [Example 54, 1-{[4-(3-Cyclohexyl-1-methyl-4-oxo-4,5-dihydro-1H-pyrazolo[3,4-d]pyrimidin-6-yl)-3-methoxyphenyl]sulfonyl}-4-piperidinecarboxylic acid]"
8,≤ 1 µM,"COc1cc(S(=O)(=O)NCCN(C)C)ccc1-c1nc2c(c(C3CCCCC3)nn2C)c(=O)[nH]1 [Example 56, 4-(3-Cyclohexyl-1-methyl-4-oxo-4,5-dihydro-1H-pyrazolo[3,4-d]pyrimidin-6-yl)-N-[2-(dimethylamino)ethyl]-3-methoxybenzenesulfonamide monochloride]"
9,≤ 1 µM,"COCCNS(=O)(=O)c1ccc(-c2nc3c(c(C4CCCCC4)nn3C)c(=O)[nH]2)c(OC)c1 [Example 57, 4-(3-Cyclohexyl-1-methyl-4-oxo-4,5-dihydro-1H-pyrazolo[3,4-d]pyrimidin-6-yl)-3-methoxy-N-(2-methoxyethyl) benzenesulfonamide]"
10,≤ 1 µM,"COc1cc(S(=O)(=O)NCCO)ccc1-c1nc2c(c(C3CCCCC3)nn2C)c(=O)[nH]1 [Example 58, 4-(3-Cyclohexyl-1-methyl-4-oxo-4,5-dihydro-1H-pyrazolo[3,4-d]pyrimidin-6-yl)-N-(2-hydroxyethyl)-3-methoxybenzenesulfonamide]"
11,≤ 1 µM,"COc1cc(N2CCOCC2)ccc1-c1nc2c(c(C3CCCCC3)nn2C)c(=O)[nH]1 [Example 59, 3-Cyclohexyl-6-[2-methoxy-4-(4-morpholinyl)phenyl]-1-methyl-1,5-dihydro-4H-pyrazolo[3,4-d]pyrimidin-4-one]"
12,≤ 0.01 µM,"COc1cc(N2CCNCC2)ccc1-c1nc2c(c(C3CCCCC3)nn2C)c(=O)[nH]1 [Example 60, 3-Cyclohexyl-6-[2-methoxy-4-(1-piperazinyl)phenyl]-1-methyl-1,5-dihydro-4H-pyrazolo[3,4-d]pyrimidin-4-one]"
13,≤ 0.01 µM,"COc1cc(N2CCC(OC)CC2)ccc1-c1nc2c(c(C3CCCCC3)nn2C)c(=O)[nH]1 [Example 62, 3-Cyclohexyl-6-[2-methoxy-4-(4-methoxy-1-piperidinyl)phenyl]-1-methyl-1,5-dihydro-4H-pyrazolo[3,4-d]pyrimidin-4-one monomethanesulfonate]"
14,≤ 1 µM,"COc1cc(N2CCN(C)CC2)ccc1-c1nc2c(c(C3CCCCCC3)nn2C)c(=O)[nH]1 [Example 64, 3-Cycloheptyl-6-[2-methoxy-4-(4-methyl-1-piperazinyl)phenyl]-1-methyl-1,5-dihydro-4H-pyrazolo[3,4-d]pyrimidin-4-one]"
15,≤ 1 µM,"COc1cc(C(=O)O)ccc1-c1nc2c(c(C3CCCCC3)nn2C)c(=O)[nH]1 [Example 65, 4-(3-Cyclohexyl-1-methyl-4-oxo-4,5-dihydro-1H-pyrazolo[3,4-d]pyrimidin-6-yl)-3-methoxybenzoic acid]"
16,≤ 1 µM,"COc1cc(C(=O)N2CCN(C)CC2)ccc1-c1nc2c(c(C3CCCCC3)nn2C)c(=O)[nH]1 [Example 67, 3-Cyclohexyl-6-{2-methoxy-4-[(4-methyl-1-piperazinyl)carbonyl]phenyl}-1-methyl-1,5-dihydro-4H-pyrazolo[3,4-d]pyrimidin-4-one monomethanesulfonate]"
17,≤ 1 µM,"COc1cc(C(=O)N2CCOCC2)ccc1-c1nc2c(c(C3CCCCC3)nn2C)c(=O)[nH]1 [Example 68, 3-Cyclohexyl-6-[2-methoxy-4-(4-morpholinylcarbonyl)phenyl]-1-methyl-1,5-dihydro-4H-pyrazolo[3,4-d]pyrimidin-4-one]"
18,≤ 1 µM,"COc1cc(C(=O)N2CCC(O)CC2)ccc1-c1nc2c(c(C3CCCCC3)nn2C)c(=O)[nH]1 [Example 69, 3-Cyclohexyl-6-{4-[(4-hydroxy-1-piperidinyl)carbonyl]-2-methoxyphenyl}-1-methyl-1,5-dihydro-4H-pyrazolo[3,4-d]pyrimidin-4-one]"
19,≤ 1 µM,"COc1cc(C(=O)N2CCC(OC)CC2)ccc1-c1nc2c(c(C3CCCCC3)nn2C)c(=O)[nH]1 [Example 70, 3-Cyclohexyl-6-{2-methoxy-4-[(4-methoxy-1-piperidinyl)carbonyl]phenyl}-1-methyl-1,5-dihydro-4H-pyrazolo[3,4-d]pyrimidin-4-one]"
20,≤ 1 µM,"COc1cc(C(=O)NCC(=O)O)ccc1-c1nc2c(c(C3CCCCC3)nn2C)c(=O)[nH]1 [Example 72, {[4-(3-Cyclohexyl-1-methyl-4-oxo-4,5-dihydro-1H-pyrazolo[3,4-d]pyrimidin-6-yl)-3-methoxybenzoyl]amino}acetic acid]"
21,≤ 0.01 µM,"COCCN(C)c1ccc(-c2nc3c(c(C4CCCCC4)nn3C)c(=O)[nH]2)c(OC)c1 [Example 73, 3-Cyclohexyl-6-{2-methoxy-4-[(2-methoxyethyl)(methyl)amino]phenyl}-1-methyl-1,5-dihydro-4H-pyrazolo[3,4-d]pyrimidin-4-one]"
22,≤ 1 µM,"COc1ccc(F)cc1-c1nc2c(c(C3CCCCC3)nn2C)c(=O)[nH]1 [Example 74, 3-Cyclohexyl-6-(5-fluoro-2-methoxyphenyl)-1-methyl-1,5-dihydro-4H-pyrazolo[3,4-d]pyrimidin-4-one]"
23,≤ 0.01 µM,COc1cc(N2CCC(C(=O)O)CC2)ccc1-c1nc2c(c(C3CCCCC3)nn2C)c(=O)[nH]1 [Example 76]
24,≤ 0.01 µM,"COc1cc(N2CCNCC2)ccc1-c1nc2c(c(C3CCCCCC3)nn2C)c(=O)[nH]1 [Example 78, 3-Cycloheptyl-6-[2-methoxy-4-(1-piperazinyl)phenyl]-1-methyl-1,5-dihydro-4H-pyrazolo[3,4-d]pyrimidin-4-one monomethanesulfonate]"
25,≤ 0.01 µM,"COc1cc(N2CCNCC2)c(F)cc1-c1nc2c(c(C3CCCCC3)nn2C)c(=O)[nH]1 [Example 81, monomethanesulfonate]"
26,≤ 0.01 µM,"COc1cc(N2CCN(C)CC2)c(F)cc1-c1nc2c(c(C3CCCCC3)nn2C)c(=O)[nH]1 [Example 82, 3-Cyclohexyl-6-[5-fluoro-2-methoxy-4-(4-methyl-1-piperazinyl)phenyl]-1-methyl-1,5-dihydro-4H-pyrazolo[3,4-d]pyrimidin-4-one]"
27,≤ 0.01 µM,"CNCCN(C)c1ccc(-c2nc3c(c(C4CCCCC4)nn3C)c(=O)[nH]2)c(OC)c1 [Example 84, 3-Cyclohexyl-6-(2-methoxy-4-{methyl[2-(methylamino)ethyl]amino}phenyl)-1-methyl-1,5-dihydro-4H-pyrazolo[3,4-d]pyrimidin-4-one monomethanesulfonate]"
28,≤ 0.01 µM,"CCOc1cc(N2CCN(C)CC2)ccc1-c1nc2c(c(C3CCCCC3)nn2C)c(=O)[nH]1 [Example 87, 3-Cyclohexyl-6-[2-ethoxy-4-(4-methyl-1-piperazinyl)phenyl]-1-methyl-1,5-dihydro-4H-pyrazolo[3,4-d]pyrimidin-4-one monomethanesulfonate]"
